Publication PMC10319115, “CL-705G: a novel chemical Kir6.2-specific KATP channel opener” (Frontiers in Pharmacology, 2023)

Legend:
Kir3.1/Kir3.4 = biological target: T1, Kir3.1/Kir3.4 (Mus musculus, UniProt P48548+P63250); assay: two-electrode voltage clamp, Xenopus oocytes; type: cell-based; settings: inhibition; high K+ (96 mM) pH 7.3
T1 construct: gene Kcnj3; heterotetramer expressed from cRNA in Xenopus laevis oocytes
T1 sequence (P63250 1-501): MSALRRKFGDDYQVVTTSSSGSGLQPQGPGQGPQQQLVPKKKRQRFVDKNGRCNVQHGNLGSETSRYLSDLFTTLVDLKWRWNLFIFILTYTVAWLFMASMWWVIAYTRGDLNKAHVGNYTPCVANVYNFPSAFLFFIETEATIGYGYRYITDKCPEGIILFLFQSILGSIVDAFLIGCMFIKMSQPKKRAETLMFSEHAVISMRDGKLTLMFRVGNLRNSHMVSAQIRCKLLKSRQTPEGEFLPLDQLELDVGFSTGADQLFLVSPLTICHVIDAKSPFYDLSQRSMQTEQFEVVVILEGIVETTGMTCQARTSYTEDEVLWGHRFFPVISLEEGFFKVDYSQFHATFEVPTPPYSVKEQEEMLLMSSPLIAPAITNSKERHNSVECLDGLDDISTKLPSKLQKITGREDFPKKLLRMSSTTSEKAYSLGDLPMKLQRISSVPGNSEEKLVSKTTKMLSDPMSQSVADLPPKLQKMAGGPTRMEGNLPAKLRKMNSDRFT
T1 sequence (P48548 1-419): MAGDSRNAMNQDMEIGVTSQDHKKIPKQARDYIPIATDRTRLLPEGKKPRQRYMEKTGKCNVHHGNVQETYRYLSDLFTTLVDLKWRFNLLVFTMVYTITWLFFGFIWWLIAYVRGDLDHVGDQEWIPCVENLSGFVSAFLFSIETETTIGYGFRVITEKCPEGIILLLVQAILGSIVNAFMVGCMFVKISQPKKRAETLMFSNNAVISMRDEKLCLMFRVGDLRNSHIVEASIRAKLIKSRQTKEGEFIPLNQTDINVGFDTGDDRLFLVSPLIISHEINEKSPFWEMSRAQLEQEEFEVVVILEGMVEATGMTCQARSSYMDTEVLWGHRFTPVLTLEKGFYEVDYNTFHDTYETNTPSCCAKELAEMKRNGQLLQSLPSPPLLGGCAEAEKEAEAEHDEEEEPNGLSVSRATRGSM

Kir6.2/SUR2A = test system: T2, Kir6.2/SUR2A; assay: Tl+ flux (FluxOR II), initial rate, HEK-293; type: cell-based; settings: opener; 10 min preincubation
T2 construct: gene KCNJ11; hetero-octamer

% reduction of current at 100 μM (Kir3.1/Kir3.4) [%]	Compound	EC50 (Kir6.2/SUR2A) [µM]
17	O=C(c1cc(=O)[nH][nH]1)N1CCCC(CCc2ccccc2C(F)(F)F)C1 (centres unmarked) [CL-705G, 5-[(3-{2-[2-(trifluoromethyl)phenyl]ethyl}-1-piperidinyl)carbonyl]-1,2-dihydro-3H-pyrazol-3-one]	–
–	CC(NC(=NC#N)Nc1ccncc1)C(C)(C)C (centres unmarked) [pinacidil]	11
